Source: ChEMBL document CHEMBL1201862, “PubChem BioAssay data set” (2004)
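Test compounds were applied to cells in 96-well plates for 48 hours at 5 doses. At the GI50, growth is halved.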 Activity calls are given as the source filed them. No stated cut-off is given here; in the data, active = GI50 up to about 1.1 µM and inactive = higher.

How the values were obtained:
Assay in all cases: NCI-60 cell line screen, 48 h
OVCAR-3 = system: OVCAR-3
KM12 = system: KM12
HCT-15 = system: HCT-15
SK-MEL-28 = system: SK-MEL-28
SF-268 = system: SF-268
MDA-MB-231 = system: MDA-MB-231
TK-10 = system: TK-10
CCRF-CEM = system: CCRF-CEM
MDA-MB-435 = system: MDA-MB-435
SNB-75 = system: SNB-75
MDA-N = system: MDA-N
A498 = system: A498
DU-145 = system: DU-145
COLO 205 = system: COLO 205
786-0 = system: 786-0
SF-539 = system: SF-539
IGROV-1 = system: IGROV-1
UO-31 = system: UO-31
NCI-H460 = system: NCI-H460
K562 = system: K562
RXF 393 = system: RXF 393
OVCAR-5 = system: OVCAR-5
SN12C = system: SN12C
CAKI-1 = system: CAKI-1
T47D = system: T47D
HOP-62 = system: HOP-62
MCF7 = system: MCF7
NCI-H23 = system: NCI-H23
NCI/ADR-RES = system: NCI/ADR-RES
HT-29 = system: HT-29
UACC-62 = system: UACC-62
OVCAR-4 = system: OVCAR-4
M14 = system: M14
MOLT-4 = system: MOLT-4
SW-620 = system: SW-620
NCI-H522 = system: NCI-H522
LOX IMVI = system: LOX IMVI
NCI-H226 = system: NCI-H226
SK-MEL-2 = system: SK-MEL-2
U-251 = system: U-251
Hs-578T = system: Hs-578T
HCT-116 = system: HCT-116
ACHN = system: ACHN
OVCAR-8 = system: OVCAR-8
A549 = system: A549
PC-3 = system: PC-3
UACC-257 = system: UACC-257
SNB-19 = system: SNB-19
HOP-92 = system: HOP-92
SF-295 = system: SF-295
SK-OV-3 = system: SK-OV-3
SR = system: SR
SK-MEL-5 = system: SK-MEL-5
BT-549 = system: BT-549
Malme-3M = system: Malme-3M
RPMI-8226 = system: RPMI-8226
HCC 2998 = system: HCC 2998
EKVX = system: EKVX
HL-60 = system: HL-60

Structure (SMILES): COc1cc(S(=O)(=O)Nc2nc(-c3ccc(N4C(=O)/C(=C/c5ccccc5)N=C4c4ccccc4)cc3)cs2)ccc1Cl
- GI50 (OVCAR-3): 11.9 µM (inactive)
- GI50 (KM12): 50.6 µM (inactive)
- GI50 (HCT-15): > 100 µM
- GI50 (SK-MEL-28): 54.7 µM (inactive)
- GI50 (SF-268): 25 µM (inactive)
- GI50 (MDA-MB-231): 21.3 µM (inactive)
- GI50 (TK-10): > 100 µM (inactive)
- GI50 (CCRF-CEM): 34.6 µM (inactive)
- GI50 (MDA-MB-435): 46.9 µM (inactive)
- GI50 (SNB-75): 39.6 µM (inactive)
- GI50 (MDA-N): 37.3 µM (inactive)
- GI50 (A498): 31.3 µM (inactive)
- GI50 (DU-145): > 100 µM (inactive)
- GI50 (COLO 205): 40 µM (inactive)
- GI50 (786-0): 63.5 µM (inactive)
- GI50 (SF-539): 41.1 µM (inactive)
- GI50 (IGROV-1): 44.2 µM (inactive)
- GI50 (UO-31): > 100 µM (inactive)
- GI50 (NCI-H460): > 100 µM (inactive)
- GI50 (K562): 41.6 µM (inactive)
- GI50 (RXF 393): 32.1 µM (inactive)
- GI50 (OVCAR-5): > 100 µM (inactive)
- GI50 (SN12C): 45 µM (inactive)
- GI50 (CAKI-1): > 100 µM (inactive)
- GI50 (T47D): 42.2 µM (inactive)
- GI50 (HOP-62): 29 µM (inactive)
- GI50 (MCF7): 35.6 µM (inactive)
- GI50 (NCI-H23): 25.2 µM (inactive)
- GI50 (NCI/ADR-RES): > 100 µM (inactive)
- GI50 (HT-29): 78.3 µM (inactive)
- GI50 (UACC-62): 21.2 µM (inactive)
- GI50 (OVCAR-4): 31.3 µM (inactive)
- GI50 (M14): 56.4 µM (inactive)
- GI50 (MOLT-4): 28.2 µM (inactive)
- GI50 (SW-620): 55.1 µM (inactive)
- GI50 (NCI-H522): 35.3 µM (inactive)
- GI50 (LOX IMVI): 34.5 µM (inactive)
- GI50 (NCI-H226): 62.5 µM (inactive)
- GI50 (SK-MEL-2): 24.6 µM (inactive)
- GI50 (U-251): 36 µM (inactive)
- GI50 (Hs-578T): 21 µM (inactive)
- GI50 (HCT-116): 36.5 µM (inactive)
- GI50 (ACHN): > 100 µM (inactive)
- GI50 (OVCAR-8): 44.4 µM (inactive)
- GI50 (A549): > 100 µM (inactive)
- GI50 (PC-3): 36.6 µM (inactive)
- GI50 (UACC-257): 55.2 µM (inactive)
- GI50 (SNB-19): 50.6 µM (inactive)
- GI50 (HOP-92): 34.4 µM (inactive)
- GI50 (SF-295): > 100 µM (inactive)
- GI50 (SK-OV-3): > 100 µM (inactive)
- GI50 (SR): 36.1 µM (inactive)
- GI50 (SK-MEL-5): 26.9 µM (inactive)
- GI50 (BT-549): 38.5 µM (inactive)
- GI50 (Malme-3M): 30.8 µM (inactive)

Structure (SMILES): OCCNc1nc2c(N3CCCC3)nc(N3CCNCC3)nc2nc1NCc1ccccc1
- GI50 (OVCAR-3): 4.92 µM (inactive)
- GI50 (KM12): 11.9 µM (inactive)
- GI50 (RPMI-8226): 16.7 µM (inactive)
- GI50 (HCC 2998): 15.2 µM (inactive)
- GI50 (HCT-15): 16.4 µM
- GI50 (SK-MEL-28): 17.5 µM (inactive)
- GI50 (SF-268): 16.9 µM (inactive)
- GI50 (MDA-MB-231): 15.7 µM (inactive)
- GI50 (TK-10): 15 µM (inactive)
- GI50 (CCRF-CEM): 10.8 µM (inactive)
- GI50 (MDA-MB-435): 12.4 µM (inactive)
- GI50 (SNB-75): 13.3 µM (inactive)
- GI50 (MDA-N): 11.9 µM (inactive)
- GI50 (DU-145): 11.3 µM (inactive)
- GI50 (COLO 205): 11.7 µM (inactive)
- GI50 (786-0): 14.8 µM (inactive)
- GI50 (SF-539): 16.3 µM (inactive)
- GI50 (IGROV-1): 11.9 µM (inactive)
- GI50 (UO-31): 15.3 µM (inactive)
- GI50 (NCI-H460): 15.5 µM (inactive)
- GI50 (K562): 14 µM (inactive)
- GI50 (RXF 393): 11.3 µM (inactive)
- GI50 (OVCAR-5): 12.1 µM (inactive)
- GI50 (SN12C): 16.7 µM (inactive)
- GI50 (CAKI-1): 16.2 µM (inactive)
- GI50 (T47D): 12.5 µM (inactive)
- GI50 (HOP-62): 2.63 µM (inactive)
- GI50 (MCF7): 14.3 µM (inactive)
- GI50 (NCI-H23): 18.2 µM (inactive)
- GI50 (NCI/ADR-RES): 38.5 µM (inactive)
- GI50 (HT-29): 8.15 µM (inactive)
- GI50 (UACC-62): 17.3 µM (inactive)
- GI50 (OVCAR-4): 17.3 µM (inactive)
- GI50 (M14): 15.7 µM (inactive)
- GI50 (MOLT-4): 16 µM (inactive)
- GI50 (SW-620): 19.1 µM (inactive)
- GI50 (NCI-H522): 12.7 µM (inactive)
- GI50 (LOX IMVI): 14.7 µM (inactive)
- GI50 (EKVX): 13.6 µM (inactive)
- GI50 (NCI-H226): 16.3 µM (inactive)
- GI50 (SK-MEL-2): 15 µM (inactive)
- GI50 (U-251): 11.1 µM (inactive)
- GI50 (Hs-578T): 20.3 µM (inactive)
- GI50 (HCT-116): 10.1 µM (inactive)
- GI50 (ACHN): 15.5 µM (inactive)
- GI50 (OVCAR-8): 15.9 µM (inactive)
- GI50 (A549): 17 µM (inactive)
- GI50 (PC-3): 16.9 µM (inactive)
- GI50 (UACC-257): 17.3 µM (inactive)
- GI50 (SNB-19): 15.8 µM (inactive)
- GI50 (HOP-92): 7.8 µM (inactive)
- GI50 (SF-295): 17.6 µM (inactive)
- GI50 (SK-OV-3): 16.8 µM (inactive)
- GI50 (SR): 13.3 µM (inactive)
- GI50 (HL-60): 15.5 µM (inactive)
- GI50 (SK-MEL-5): 12.6 µM (inactive)
- GI50 (BT-549): 16.4 µM (inactive)
- GI50 (Malme-3M): 19.6 µM (inactive)
